Where two headings read alike, the source gives them in different places.
Assays:
[1] = tested on: ventricular extrasystoles; experiment: Anti-arhythmic action in the rat (aconitine-induced ventricular extrasystoles); assay type: in vivo; conditions: read-out: Percentage of protection (percentage increase in the aconitine dose necessary to initiate the ventricular extrasystoles); for change in vivo at 5 mg/kg / change in vivo at 1 mg/kg: iv; for change in vivo at 25 mg/kg: po, 1 h
Method: Male rats weighing 300-350 g, anaesthetized by intraperitoneal route with 1.20 g/kg of urethane, were tracheotomized and subjectd to artificial respiration (40-50 insufflations of 3 ml/minute). Needles were implanted under the skin to record the electrocardiogram of the rats on reception of the DII signal. The test products were administered intravenously or orally. After five minutes in the case of intravenous administration and one hour in the case of oral administration, the jugular vein of the rats was perfused with 10 micrograms/minutes under 0.21 ml of an aconitine solution and the time taken for the first ventricular extrasystoles to appear was noted. The amount of aconitine perfused was calculated, then expressed as a function of the body weight of the animal.
The percentage increase in the aconitine dose necessary to initiate the ventricular extrasystoles after treatment was calculated relative to the control animals.

[2] = tested on: mouse; experiment: Acute toxicity, oral, mouse; assay type: in vivo
Method: The lethal doses LD0 of the various compounds tested were evaluated after oral administration to a mouse. […]

[3] = tested on: blood-platelets; experiment: Blood-platelet aggregation, in vitro, on plasma rich in blood-platelets (PRP); assay type: cell-based; conditions: Oryctolagus cuniculus, 2 min, rabbit PRP, 2 minutes incubation
Description: 3) Test for the Activity of Anti-Aggregation of Blood-Platelets. Blood-Platelet Aggregation, in Vitro, on Plasma Rich in Blood-Platelets (PRP)
Measurement of blood-platelet aggregation was made according to the turbidimetric method of Born et al 1963, J. Physiol., Vol. 168, p. 178. Rabbit's blood was removed on Na citrate at 3.2% of cardiac puncture and the plasma rich in blood-platelets was obtained by centrifuging and adjustment of the number of blood-platelets to […]. The aggregation was induced by collagen (40 micrograms per ml of PRP) or PAF acether (0.05 micromoles per liter of PRP). The test compounds were incubated at different concentrations in the PRP 2 minutes before the aggregating agent. The results are expressed in IC50 (concentration inhibiting the aggregation by 50% relative to the control curves).

[4] = tested on: caudal artery; experiment: Test for anti-calcic activity in vitro, isolated caudal artery of the rat (contraction induced by calcium chloride); assay type: cell-based; conditions: caudal artery rings of Wistar rats, depolarizing solution KCl 100 mM, CaCl2 2.5 mM, phentolamine 10^-5 M, 37° C., read-out: IC50 (concentration which inhibited by 50% the contraction induced by calcium chloride)
Method: Isolated caudal artery of the rat.
When the contractile responses became reproducible, the test product was added in increasing concentrations 15 minutes before each contraction.

[5] = PAF acether 0.05 micromoles per liter of PRP, read-out: IC50, induction by PAF ACETHER (concentration inhibiting the aggregation by 50%)
[6] = collagen 40 micrograms per ml of PRP, read-out: IC50, induction by COLLAGEN (concentration inhibiting the aggregation by 50%)

SMILES | change in vivo at 5 mg/kg [1] | change in vivo at 25 mg/kg [1] | LD0 (maximum dose which did not cause any deaths over 8 days) [2] | IC50 [3, 5] | IC50 [3, 6] | IC50 [4] | change in vivo at 1 mg/kg [1]
C=C(c1ccccc1OCC(O)CNC(C)(C)C)c1cccc2[nH]ccc12 (racemic) [Example 22, (±) 3-[(1,1-dimethylethyl)-amino]-[2-[1-(1H-indol-4-yl)-ethenyl]-phenoxy]-2-propanol] | 84% | 33% | 200 mg/kg | 14 µM | 9 µM | 3.8 µM | 
CC(C)N(CC(O)COc1ccccc1C(=O)c1cccc2[nH]ccc12)C(C)C (racemic) [Example 18, (±) [2-[3-[[bis-1-methylethyl)-amino]-2-hydroxy-propoxy]-phenyl]-(1H-indol-4-yl) methanone] | 135% |  |  |  |  | 7.2 µM | 
Cn1ccc2c(C(=O)c3ccccc3OCC(O)CNC(C)(C)C)cccc21 (racemic) [Example 10, (±)[2-[3-[(1,1-dimethylethyl)-amino]-2-hydroxy-propoxy]-phenyl]-(1-methyl-1H-indol-4-yl) methanone] |  | 124% |  | 70 µM | 21 µM |  | 133%
CC(C)(C)NCCCOc1ccc(C(=O)c2cccc3[nH]ccc23)cc1 [Example 1, [4-[3-[(1,1-dimethyl-ethyl)-amino]-propoxy]-phenyl]-(1H-indol-4-yl)-methanone] |  |  |  |  |  | 0.46 µM | 
C=C(c1ccccc1OCCCNC(C)(C)C)c1cccc2[nH]ccc12 [Example 24] |  |  |  | 14 µM | 8 µM | 3.1 µM | 
CC(C)(C)NCCCOc1ccccc1C(O)c1cccc2[nH]ccc12 (stereo not drawn) [Example 7, α-[2-[3-[(1,1-dimethylethyl)-amino]-propoxy]-phenyl]-1H-indol-4-methanol benzoate] | > 201% |  | 100 mg/kg |  |  |  | 
CON=C(c1ccccc1OCC(O)CNC(C)(C)C)c1cccc2[nH]ccc12 (racemic) [Example 25, (±) O-methyloxime of [2-[3-[(2,2-dimethylethyl)-amino]-2-hydroxypropoxy]-phenyl]-(1H-indol-4-yl) methanone] | 186% |  |  |  |  |  | 
O=C(c1ccccc1OCC(O)CNC1CCCCC1)c1cccc2[nH]ccc12 (racemic) [Example 21, (±) [2-[(3-cyclohexylamino)-2-hydroxylpropoxy]-phenyl]-(1H-indol-4-yl) methanone] | 124% |  |  |  |  |  | 
CC(C)(C)NCCCOc1ccccc1Cc1cccc2[nH]ccc12 [Example 6, N-(1,1-dimethylethyl)-3-[2-[(1H-indol-4-yl)-methyl]-phenoxy]-propanamine benzoate] |  |  |  | 37 µM | 14 µM | 0.4 µM | 
Cn1ccc2c(C(=O)c3ccccc3OCCCNC(C)(C)C)cccc21 [Example 12, [2-[3-[(1,1-dimethylethyl)-amino]-propoxy]-phenyl]-(1-methyl-1H-indol-4-yl)methanone] |  |  |  | 40 µM | 40 µM | 4.8 µM | 99%
CC(C)(C)NCCCOc1ccccc1C(=O)c1cccc2[nH]ccc12.O=C(O)c1ccccc1 [Example 3, [2-[3-[(1,1-dimethyl ethyl)-amino]-propoxy]-phenyl]-(1H-indol-4-yl)-methanone benzoate] | 202% | 52% | 100 mg/kg | 47 µM | 31 µM | 1.9 µM | 
CC(C)(C)NCC(O)COc1ccc(C(=O)c2cccc3[nH]ccc23)cc1 (stereo not drawn) [Example 2, [4-[3-[(1,1-dimethyl ethyl)-amino]-2-hydroxypropoxy]-phenyl]-(1H-indol-4-yl)-methanone] | 93% | 82% |  |  |  | 1.9 µM | 
CC(C)(C)NCC(O)COc1ccccc1C(O)c1cccc2[nH]ccc12 (single isomer, unassigned; isomer b) [Example 9, α-[2-[3-[(1,1-dimethylethyl)-amino]-2-hydroxy-propoxy]-phenyl]-1H-indole-4-methanol benzoate (Isomer B)] | > 165% | 91% | > 200 mg/kg |  |  |  | 
CN1CCN(CC(O)COc2ccccc2C(=O)c2cccc3[nH]ccc23)CC1 (racemic) [Example 19, (±) [2-[2-hydroxy-3-(4-methyl-1-piperazinyl)-propoxy]-phenyl]-(1H-indol-4-yl) methanone] | 142% |  |  |  |  |  | 
CC(c1ccccc1OCC(O)CNC(C)(C)C)c1cccc2[nH]ccc12 (racemic) [Example 23, (±) 3-[(1,1-dimethylethyl)-amino]-1-[2-[1-(1H-indol-4-yl)-ethyl]-phenoxy]-2-propanol] | 88% |  |  | 25 µM | 8 µM | 4.7 µM | 
CC(C)(C)NCC(O)COc1ccccc1C(O)c1cccc2[nH]ccc12 (single isomer, unassigned) [Example 8, α-[2-[3-[(1,1-dimethylethyl)-amino]-2-hydroxy-propoxy]-phenyl]-1H-indole-4-methanol benzoate] |  |  | > 200 mg/kg |  |  |  | 
Cn1ccc2c(C(O)c3ccccc3OCCCNC(C)(C)C)cccc21 (racemic) [Example 13, (±) α-[2-[3-[(1,1-dimethylethyl)-amino]-propoxy]-phenyl-1-methyl-1H-indol-4-methanol] | 140% |  |  | 70 µM | 60 µM |  | 
CC(C)(C)NCCOc1ccccc1C(=O)c1cccc2[nH]ccc12 [Example 16, [2-[2-[(1,1-dimethylethyl)-amino]-ethoxy]-phenyl]-(1H-indol-4-yl)-methanone] |  |  |  | 100 µM | 57 µM | 1.1 µM | 
CC(C)(C)NCC(O)COc1ccccc1C(=O)c1cccc2[nH]ccc12 (stereo not drawn) [Example 4, [2-[3-[(1,1-dimethyl ethyl)-amino]-2-hydroxypropoxy]-phenyl]-(1H-indol-4-yl)-methanone] | > 217% | 73% |  | 55 µM | 9.5 µM | 6.2 µM | 
Cn1ccc2c(Cc3ccccc3OCC(O)CNC(C)(C)C)cccc21 (racemic) [Example 11, (±) 1-[(1,1-dimethylethyl)-amino]-3-[2-[(1-methyl-1H-indol-4-yl)-methyl]-phenoxy]-2-propanol] | 257% | 81% |  | 24 µM | 10 µM | 3 µM | 
CC(C)(C)NCC(O)COc1ccccc1Cc1cccc2[nH]ccc12 (stereo not drawn) [Example 5, 1-[(1,1-dimethyl-ethyl)-amino]-3-[2-[(1H-indol-4-yl)-methyl]-phenoxy]-2-propanol] |  |  | > 200 mg/kg | 42 µM | 18 µM | 2 µM | 
CC(C)(C)NCC(O)COc1ccccc1C(=O)c1cccc2c1CC(=O)N2 (stereo not drawn) [Example 15, 1,3-dihydro-4-[2-[3-[(1,1-dimethylethyl)-amino]-2-hydroxy-propoxy]-benzoyl]-2H-indol-2-one] |  |  | > 200 mg/kg |  |  |  | 

Source: US5086070A, “4-benzyl-1H-indoles and anti-arrthymic use thereof” (Roussel Uclaf, priority 1989, dated 1992)
